Assay results from ChEMBL document CHEMBL4359916, “Design, synthesis and biological evaluation of 1-benzyl-5-oxopyrrolidine-2-carboximidamide derivatives as novel neuroprotective agents” (Eur J Med Chem, 2019).
Activity calls are given as the source filed them. No cut-off for these calls is given here.

Legend:
SH-SY5Y [1] = assay: Neuroprotective activity against NMDA-induced cell damage in human SH-SY5Y cells assessed as cell viability at 5 uM preincubated for 8 hrs followed by NMDA addition and further incubated for 30 mins and measured after 12 hrs by MTT assay relative to control; format: functional; details: read-out: Activity
SH-SY5Y [2] = assay: Neuroprotective activity against NMDA-induced cell damage in human SH-SY5Y cells assessed as cell viability at 0.05 uM preincubated for 8 hrs followed by NMDA addition and further incubated for 30 mins and measured after 12 hrs by MTT assay relative to control; format: functional; details: read-out: Activity
SH-SY5Y [3] = assay: Neuroprotective activity against NMDA-induced cell damage in human SH-SY5Y cells assessed as cell viability at 0.5 uM preincubated for 8 hrs followed by NMDA addition and further incubated for 30 mins and measured after 12 hrs by MTT assay relative to control; format: functional; details: read-out: Activity
[4] = Clearance in human liver microsomes at 10 uM preincubated for 10 mins followed by addition of NADPH and measured for 5 to 60 mins; format: ADME, Microsome
Mus musculus [5] = assay: (§1) Improvement in spatial memory impairment in C57BL/6 mouse model of bilateral common carotid artery occlusion-induced brain ischemia assessed as increase in swimming distance at 10 to 50 mg/kg/day, po via gavage at 24 hrs post surgery and 1 hr prior to the test measured on day 14 to 17 by Morris water maze test; format: functional, organism-based
Mus musculus [6] = assay: as §1, with “decrease” for “increase”, “escape latency” for “swimming distance”; format: functional, organism-based
[7] = target: T1, Glutamate [NMDA] receptor (Homo sapiens) (UniProt Q05586+Q12879+Q13224+O15399+O60391+Q14957+Q8TCU5); assay: Antagonist activity at NMDA receptor in human SH-SY5Y cells assessed as reduction in NMDA-stimulated calcium ion influx at 5 uM measured after 3 hrs by Fluo-3 AM indicator based laser scanning confocal microscopy analysis; format: cell-based
Mus musculus [8] = assay: Cognitive enhancing effect in C57BL/6 mouse model of bilateral common carotid artery occlusion-induced brain ischemia at 50 mg/kg/day, po via gavage at 24 hrs post surgery after day 17; format: functional, organism-based
Mus musculus [9] = assay: Improvement in spatial memory impairment in C57BL/6 mouse model of bilateral common carotid artery occlusion-induced brain ischemia at 50 mg/kg/day, po via gavage at 24 hrs post surgery after day 17; format: functional, organism-based
[10] = Metabolic stability in human liver microsomes assessed as parent compound remaining at 10 uM measured after 60 mins; format: ADME, Microsome; details: read-out: Stability
SH-SY5Y [11] = assay: Neuroprotective activity in human SH-SY5Y cells assessed as reduction in NMDA-induced NR2B upregulation preincubated for 6 hrs followed by NMDA addition and further incubated for 30 mind and measured after 4 hrs by Western blot analysis; format: functional, cell-based
[12] = target: T1, Glutamate [NMDA] receptor (Homo sapiens); assay: Inhibition of NMDA receptor in NMDA-induced human SH-SY5Y cells assessed as increase in phosphorylated ERK1/2 level preincubated for 6 hrs followed by NMDA addition and further incubated for 30 mind and measured after 4 hrs by Western blot analysis; format: cell-based
Mus musculus [13] = assay: as §1, with “time spent in correct quadrant” for “swimming distance”; format: functional, organism-based
Mus musculus [14] = assay: as §1, with “number of virtual platform crossing” for “swimming distance”; format: functional, organism-based
Mus musculus [15] = assay: Memory enhancement effect in C57BL/6 mouse model of bilateral common carotid artery occlusion-induced brain ischemia assessed as increase in discrimination index at 50 mg/kg/day, po via gavage 24 hrs post surgery measured on day 9 to 12 after 24 hrs by novel object recognition test; format: functional, organism-based
Mus musculus [16] = assay: Cognitive enhancing effect in C57BL/6 mouse model of bilateral common carotid artery occlusion-induced brain ischemia assessed as effect on total arm entries at 10 to 50 mg/kg/day, po via gavage at 24 hrs post surgery on day 8 after […] of drug administration by Y-maze test; format: functional, organism-based
[17] = Half-life in human liver microsomes at 10 uM preincubated for 10 mins followed by addition of NADPH and measured for 5 to 60 mins; format: ADME, Microsome
Mus musculus [18] = assay: Improvement in visual recognition effect in C57BL/6 mouse model of bilateral common carotid artery occlusion-induced brain ischemia at 50 mg/kg/day, po via gavage at 24 hrs post surgery measured on day 9 to 12 by novel object recognition test; format: functional, organism-based
Mus musculus [19] = assay: Memory enhancement effect in C57BL/6 mouse model of bilateral common carotid artery occlusion-induced brain ischemia assessed as increase in preferential index at 50 mg/kg/day, po via gavage after 24 hrs post surgery measured on day 9 to 12 after 1 hr by novel object recognition test; format: functional, organism-based
Mus musculus [20] = assay: Cognitive enhancing effect in C57BL/6 mouse model of bilateral common carotid artery occlusion-induced brain ischemia assessed as increase in spontaneous alternation behavior at 10 to 50 mg/kg/day, po via gavage at 24 hrs post surgery on day 8 after 1 hr drug administration by Y-maze test; format: functional, organism-based
Mus musculus [21] = assay: Improvement in spatial memory impairment in C57BL/6 mouse model of bilateral common carotid artery occlusion-induced brain ischemia at 50 mg/kg/day, po via gavage at 24 hrs post surgery measured on day 9 to 12 by novel object recognition test; format: functional, organism-based

Cc1ccc(CN2C(=O)CC[C@H]2C(=N)NCc2ccc(O)cc2)cc1
viability at 5 µM (SH-SY5Y [1]): 23.8%
viability at 0.05 µM (SH-SY5Y [2]): 20.5%
viability at 0.5 µM (SH-SY5Y [3]): 21.9%

N=C(NCc1ccccc1)[C@@H]1CCC(=O)N1Cc1ccc([N+](=O)[O-])cc1
viability at 5 µM (SH-SY5Y [1]): 25.6%
viability at 0.05 µM (SH-SY5Y [2]): 13.7%
viability at 0.5 µM (SH-SY5Y [3]): 24%

COc1ccc(CNC(=N)[C@@H]2CCC(=O)N2Cc2ccccc2)cc1
viability at 5 µM (SH-SY5Y [1]): 19.5%
viability at 0.05 µM (SH-SY5Y [2]): 7.1%
viability at 0.5 µM (SH-SY5Y [3]): 23.6%

COc1ccc(CNC(=N)[C@@H]2CCC(=O)N2Cc2ccc(C)cc2)cc1
viability at 5 µM (SH-SY5Y [1]): 29.5%
viability at 0.05 µM (SH-SY5Y [2]): 19.5%
viability at 0.5 µM (SH-SY5Y [3]): 21.9%

COc1ccc(CNC(=N)[C@@H]2CCC(=O)N2Cc2ccccc2[N+](=O)[O-])cc1
viability at 5 µM (SH-SY5Y [1]): 25.4%
viability at 0.05 µM (SH-SY5Y [2]): 18.1%
viability at 0.5 µM (SH-SY5Y [3]): 21.1%

COc1ccc(CN2C(=O)CC[C@H]2C(=N)NCc2ccc(O)cc2)cc1
viability at 5 µM (SH-SY5Y [1]): 26.6%
viability at 0.05 µM (SH-SY5Y [2]): 16%
viability at 0.5 µM (SH-SY5Y [3]): 20.5%

N=C(NCc1ccc(O)cc1)[C@@H]1CCC(=O)N1Cc1ccc([N+](=O)[O-])cc1
viability at 5 µM (SH-SY5Y [1]): 34.5%
viability at 0.05 µM (SH-SY5Y [2]): 25.9%
viability at 0.5 µM (SH-SY5Y [3]): 31.3%

Cl.N=C(NCc1ccc(O)cc1)[C@@H]1CCC(=O)N1Cc1ccc(F)cc1
CLint [4]: < 9.6 µL/min/mg
Activity (Mus musculus [5]): Active
Activity (Mus musculus [6]): Active
inhibition [7]: Active
Activity (Mus musculus [8]): Active
Activity (Mus musculus [9]): Active
viability at 5 µM (SH-SY5Y [1]): 48.6%
remaining at 1 h, 10 µM [10]: 92.7%
Activity (SH-SY5Y [11]): Active
inhibition [12]: Active
viability at 0.05 µM (SH-SY5Y [2]): 35.2%
Activity (Mus musculus [13]): Active
Activity (Mus musculus [14]): Active
Activity (Mus musculus [15]): Active
Activity (Mus musculus [16]): inactive
half-life at 10 µM [17]: > 2.42 h
Activity (Mus musculus [18]): Active
Activity (Mus musculus [19]): Active
Activity (Mus musculus [20]): Active
Activity (Mus musculus [21]): Active
viability at 0.5 µM (SH-SY5Y [3]): 42%

Cc1ccc(CN2C(=O)CC[C@H]2C(=N)NCc2ccccc2)cc1
viability at 5 µM (SH-SY5Y [1]): 24.8%
viability at 0.05 µM (SH-SY5Y [2]): 17.1%
viability at 0.5 µM (SH-SY5Y [3]): 23.5%

COc1ccc(CNC(=N)[C@@H]2CCC(=O)N2Cc2ccc(OC)cc2)cc1
viability at 5 µM (SH-SY5Y [1]): 33.6%
viability at 0.05 µM (SH-SY5Y [2]): 24.2%
viability at 0.5 µM (SH-SY5Y [3]): 24.8%

N=C(NCc1ccc(O)cc1)[C@@H]1CCC(=O)N1Cc1ccccc1[N+](=O)[O-]
viability at 5 µM (SH-SY5Y [1]): 30.4%
viability at 0.05 µM (SH-SY5Y [2]): 20%
viability at 0.5 µM (SH-SY5Y [3]): 26.9%

COc1ccc(CN2C(=O)CC[C@H]2C(=N)NCc2ccccc2)cc1
viability at 5 µM (SH-SY5Y [1]): 17.9%
viability at 0.05 µM (SH-SY5Y [2]): 12.3%
viability at 0.5 µM (SH-SY5Y [3]): 21%

N=C(NCc1ccccc1)[C@@H]1CCC(=O)N1Cc1ccccc1[N+](=O)[O-]
viability at 5 µM (SH-SY5Y [1]): 25.3%
viability at 0.05 µM (SH-SY5Y [2]): 10.1%
viability at 0.5 µM (SH-SY5Y [3]): 28.8%

N=C(NCc1ccccc1)[C@@H]1CCC(=O)N1Cc1ccccc1
viability at 5 µM (SH-SY5Y [1]): 20.7%
viability at 0.05 µM (SH-SY5Y [2]): 16.6%
viability at 0.5 µM (SH-SY5Y [3]): 27.9%

COc1ccc(CNC(=N)[C@@H]2CCC(=O)N2Cc2ccc(F)cc2)cc1
viability at 5 µM (SH-SY5Y [1]): 38.1%
viability at 0.05 µM (SH-SY5Y [2]): 15.8%
viability at 0.5 µM (SH-SY5Y [3]): 36.7%

N=C(NCc1ccccc1)[C@@H]1CCC(=O)N1Cc1ccc(F)cc1
viability at 5 µM (SH-SY5Y [1]): 31.4%
viability at 0.05 µM (SH-SY5Y [2]): 13.3%
viability at 0.5 µM (SH-SY5Y [3]): 23.3%

C[C@@H]([C@@H](O)c1ccc(O)cc1)N1CCC(Cc2ccccc2)CC1 [(S)-IFENPRODIL]
inhibition [7]: Active
viability at 5 µM (SH-SY5Y [1]): 41%
viability at 0.05 µM (SH-SY5Y [2]): 29.4%
viability at 0.5 µM (SH-SY5Y [3]): 40.4%

N=C(NCc1ccc(O)cc1)[C@@H]1CCC(=O)N1Cc1ccccc1
viability at 5 µM (SH-SY5Y [1]): 37.6%
viability at 0.05 µM (SH-SY5Y [2]): 19.8%
viability at 0.5 µM (SH-SY5Y [3]): 35.4%

COc1ccc(CNC(=N)[C@@H]2CCC(=O)N2Cc2ccc([N+](=O)[O-])cc2)cc1
viability at 5 µM (SH-SY5Y [1]): 35.2%
viability at 0.05 µM (SH-SY5Y [2]): 14.3%
viability at 0.5 µM (SH-SY5Y [3]): 25.4%
